The values that follow come from publication PMC7065246 (Journal of the American Chemical Society, 2020).

Experiment [1] has as its target T1, PhqK (Penicillium fellutanum, UniProt L0E4H0). The experiment in a line: crystal structures. It is filed as binding. To be noted: out conformation with and without substrate.
The target of experiment [2] is T1, PhqK. The experiment in a line: Michaelis-Menten kinetics of spirocyclization. It is filed as biochemical. To be noted: FAD-dependent monooxygenase reaction; details in supplement.

T1 sequence (L0E4H0 whole entry): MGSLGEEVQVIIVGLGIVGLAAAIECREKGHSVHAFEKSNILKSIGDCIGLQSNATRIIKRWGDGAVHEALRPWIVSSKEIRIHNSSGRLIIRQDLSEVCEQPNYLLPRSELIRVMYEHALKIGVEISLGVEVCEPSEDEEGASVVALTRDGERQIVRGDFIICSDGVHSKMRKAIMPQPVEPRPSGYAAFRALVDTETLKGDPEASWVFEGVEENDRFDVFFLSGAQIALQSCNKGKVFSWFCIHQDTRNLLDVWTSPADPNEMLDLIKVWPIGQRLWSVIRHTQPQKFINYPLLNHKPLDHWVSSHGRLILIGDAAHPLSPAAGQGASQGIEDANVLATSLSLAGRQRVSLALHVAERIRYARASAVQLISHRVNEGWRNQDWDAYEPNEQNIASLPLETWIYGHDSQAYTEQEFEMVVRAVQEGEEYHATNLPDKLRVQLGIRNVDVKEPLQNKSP

As to `Cc1cc2nc3c(=O)[nH]c(=O)nc-3n(C[C@H](O)[C@H](O)[C@H](O)COP(=O)(O)OP(=O)(O)OC[C@H]3O[C@@H](n4cnc5c(N)ncnc54)[C@H](O)[C@@H]3O)c2cc1C` [FAD], at PhqK [1], the “crystal structures (ligand-free 1.71 Å and substrate complexes)” value is “substrate bound and unbound PhqK structures, the flavin was observed in the “out” conformation”.
Regarding paraherquamide L [compound 15], the Km on PhqK [2] was 19.4 ± 5.2 µM.

By Km is commonly meant the substrate concentration at which the rate is half of its maximum.
